Data on three compounds can be found in patent US20240024500A1, “ELECTROSTATIC NANOPARTICLES AND USE THEREOF” (Westfaelische Wilhelms-Universitaet Muenster, priority 2020, published 2024).

Like-named read-outs stand apart in the source and are kept apart here.

A short description of data set [1]: Cell-free vesicle formation, light/fluorescence microscopy. In kind it is physicochemical. Particulars: charged vs uncharged cargo, modified vs unmodified antibody. As to the method: Based upon these measurements, we hypothesized that the antibody-protamine/free SMCC-protamine/siRNA complexes form outside cells and independently of a cellular context. […]
We further analysed the properties of the different conjugation products according to their capacity to form vesicular-structures without cells when these conjugation products were incubated with Alexa488-control-siRNA (FIG. 40 G-L) as well as with EGFR-positive A459 cells (FIG. 40 M-R). When cetuximab was conjugated with SMCC-protamine at ratios of 1:1 up to 1:10, no efficient cell-free vesicle formation could be observed (FIG. 40 G-I), while at the ratio 1:32, the vesicle formation was very abundant FIG. 40 J) and decreased at ratios 1:50 and 1:100 (FIG. 40 K-L). The internalisation capacity of these complexes was highest upon conjugation 1:32 (FIG. 40 P), decrease upon conjugation 1:10 (FIG. 40 O). […] This hinted at an optimal complex formation of cetuximab with SMCC-protamine of 1:32, since this lead to the most efficient conjugation, vesicle formation without cells and internalisation into cells.
To further elucidate the function of SMCC-protamine coupled to the antibody and as free molecule within the complex, we titrated the amount of SMCC-protamine added to the antibody-protamine-conjugates that were depleted from free SMCC-protamine by HPLC. […] We added different amounts of free SMCC-protamine and protamine alone to anti-EGFR-mAB-P (FIG. 41).

A further data set deals with HBL-1 cells. Put plainly: Colony formation assay, HBL-1, ibrutinib-Cy3.5 cargo. In kind it is cell-based. As to the method:
Next, we planned functional assays for identifying the effectivity of the antibody-inhibitor-complexes. DLBCL tumor cells were seeded in methylcellulose to form anchorage-free colony growth as a substitute marker for tumorigenicity. Assays were treated with combinations of antibody-inhibitor complexes and compared with appropriate control groups.
This colony-assay is used for quantification of anchorage-independent clonal cell growth and is a standard in vitro surrogate for tumorigenicity in vivo.

For the next data set, the system named is HBL-1 DLBCL-cells. As to the kind of experiment: NSG-HBL1 xenograft model. Particulars: after treatment start.
The target in data set [2] is EGFR (epidermal growth factor receptor) on cells (UniProt P00533). Put plainly: cell-based or functional assay.

In the case of `C=CC(=O)N1CCC[C@@H](n2nc(-c3ccc(Oc4ccccc4)cc3)c3c(N)ncnc32)C1` [ibrutinib, 1-[(3R)-3-[4-amino-3-(4-phenoxyphenyl)pyrazolo[3,4-d]pyrimidin-1-yl]piperidin-1-yl]prop-2-en-1-one], the “nanoparticle formation with antibody carriers” value is on record as “not seen” in data set [1] and “not” in data set [1] (listed as uncharged ibrutinib). Besides, the “colony formation of HBL-1 cells” value with HBL-1 cells is on record as “much lesser degree”. The “day by which all / the last mice had to be sacrificed” value in the data set with HBL-1 DLBCL-cells worked out at 20 days.
As for “cetuximab-SMCC-protamine conjugate (anti-EGFR-mAB-protamine, used with free SMCC-protamine) (antibody)”, in data set [2], the Alexa488-siRNA shuttled into RD cells (FACS) was > 90 % of cells and the internalisation of Alexa488-siRNA into RD cells (FACS) is < 90 % of cells.
For the compound rituximab: anti-CD20 antibody, the “nanoparticle formation with antibody carriers” value in data set [1] is recorded as “not seen”. For the same compound, the “colony formation of HBL-1 cells” value is given as “only a mild effect” with HBL-1 cells (listed as unconjugated rituximab) and “not” in the data set on HBL-1 cells (listed as unmodified rituximab (αCD20-mAB)). Moreover, the “day by which all / the last mice had to be sacrificed” value in the data set with HBL-1 DLBCL-cells is not above 16 days.
